According to paper PMC4303209, “A novel phosphatidylinositol 3-kinase (PI3K) inhibitor directs a potent FOXO-dependent, p53-independent cell cycle arrest phenotype characterized by the differential induction of a subset of FOXO-regulated genes” (Breast Cancer Research : BCR, 2014):

Test system: MCF-7 breast cancer cells
Assay: Microarray gene expression analysis (Agilent whole human genome 4 x 44K; compound vs DMSO, LIMMA log2 fold change)
Type: cell-based
Settings: Apoptosis genes

In the case of `Cn1ncc2c(N3CCOCC3)nc(-c3cccc(O)c3)nc21` [ETP-45658], the “CTNNA1 log2FC” value (Gene 1495) is reported as 0.398, the “CTNNB1 log2FC” value (Gene 1499) is reported as 0.236 and the “CTSB log2FC” value (Gene 1508) is reported as -0.231. The “CTSH log2FC” value (Gene 1512) was -0.192, the “CTSL log2FC” value (Gene 1514) was 0.446 and the “CX3CR1 log2FC” value (Gene 1524) was 0.181. For the same compound, the “CYLD log2FC” value (Gene 1540) was 0.499, the “DAB2 log2FC” value (Gene 1601) was -0.232 and the “DAD1 log2FC” value (Gene 1603) was -0.542. The “DAP log2FC” value (Gene 1611) was -0.178, the “DAPK1 log2FC” value (Gene 1612) was 0.238 and the “DAPK3 log2FC” value (Gene 1613) was -0.132. The “DBH log2FC” value (Gene 1621) was -0.059, the “DCC log2FC” value (Gene 1630) was 0.044 and the “GADD45A log2FC” value (Gene 1647) was -0.416. The “DDIT3 log2FC” value (Gene 1649) was 2.364, the “DDX3X log2FC” value (Gene 1654) was -1.156 and the “DDX5 log2FC” value (Gene 1655) was -0.656. The “DFFA log2FC” value (Gene 1676) was -0.316, the “DFNA5 log2FC” value (Gene 1687) was 0.156 and the “DHCR24 log2FC” value (Gene 1718) was -0.643. The “DHODH log2FC” value (Gene 1723) was -0.210, the “NQO1 log2FC” value (Gene 1728) was 0.303 and the “DLX1 log2FC” value (Gene 1745) was -0.429. For the same compound, the “DNASE1 log2FC” value (Gene 1773) was 0.250, the “DNASE1L3 log2FC” value (Gene 1776) was -0.141 and the “DNASE2 log2FC” value (Gene 1777) was 0.536. The “DOCK1 log2FC” value (Gene 1793) was 0.462, the “DPEP1 log2FC” value (Gene 1800) was -0.068 and the “ATN1 log2FC” value (Gene 1822) was -0.501. The “DSG1 log2FC” value (Gene 1828) was -0.456, the “DSG2 log2FC” value (Gene 1829) was 0.346 and the “DSG3 log2FC” value (Gene 1830) was -0.092. For the same compound, the “TSC22D3 log2FC” value (Gene 1831) was 0.689, the “DSP log2FC” value (Gene 1832) was 0.613 and the “DUSP1 log2FC” value (Gene 1843) was -0.931. The “DUSP2 log2FC” value (Gene 1844) was -2.124, the “DUSP6 log2FC” value (Gene 1848) was -2.175 and the “E2F1 log2FC” value (Gene 1869) was -0.356. For the same compound, the “E2F2 log2FC” value (Gene 1870) was -0.581, the “ECT2 log2FC” value (Gene 1894) was 1.058 and the “EDN1 log2FC” value (Gene 1906) was 0.169. For the same compound, the “EDNRA log2FC” value (Gene 1909) was -0.061, the “EDNRB log2FC” value (Gene 1910) was -0.075 and the “EEF1A2 log2FC” value (Gene 1917) was -0.382. The “EFNA5 log2FC” value (Gene 1946) was -0.086, the “EGFR log2FC” value (Gene 1956) was 0.311 and the “EGR1 log2FC” value (Gene 1958) was -3.897. For the same compound, the “EGR2 log2FC” value (Gene 1959) was -0.340, the “EPHA2 log2FC” value (Gene 1969) was -2.195 and the “EIF5A log2FC” value (Gene 1984) was -0.137. The “ENDOG log2FC” value (Gene 2021) was -0.357, the “EP300 log2FC” value (Gene 2033) was -0.215 and the “EPHA7 log2FC” value (Gene 2045) was -0.083. The “CLN8 log2FC” value (Gene 2055) was -0.161, the “EPO log2FC” value (Gene 2056) was -0.146 and the “ERBB3 log2FC” value (Gene 2065) was 0.557. For the same compound, the “ERBB4 log2FC” value (Gene 2066) was 0.141, the “ERCC2 log2FC” value (Gene 2068) was -0.566 and the “ERCC3 log2FC” value (Gene 2071) was -0.084. For the same compound, the “ERCC5 log2FC” value (Gene 2073) was 0.896, the “ERCC6 log2FC” value (Gene 2074) was 0.369 and the “ERN1 log2FC” value (Gene 2081) was -0.168. For the same compound, the “ESR1 log2FC” value (Gene 2099) was -0.121, the “ESR2 log2FC” value (Gene 2100) was -0.067 and the “ETS1 log2FC” value (Gene 2113) was -0.590. For the same compound, the “EYA2 log2FC” value (Gene 2139) was -0.248, the “F2R log2FC” value (Gene 2149) was 0.260 and the “F3 log2FC” value (Gene 2152) was -0.164. The “PTK2B log2FC” value (Gene 2185) was 0.101, the “FCER1G log2FC” value (Gene 2207) was -0.662 and the “FGD1 log2FC” value (Gene 2245) was -0.405. For the same compound, the “FGF4 log2FC” value (Gene 2249) was -0.171, the “FGF8 log2FC” value (Gene 2253) was -0.131 and the “FGF10 log2FC” value (Gene 2255) was 0.033. For the same compound, the “FGFR1 log2FC” value (Gene 2260) was -0.387, the “FGFR3 log2FC” value (Gene 2261) was -0.382 and the “FGFR2 log2FC” value (Gene 2263) was 1.543. The “FHIT log2FC” value (Gene 2272) was -0.370, the “FHL2 log2FC” value (Gene 2274) was -0.173 and the “FOXC1 log2FC” value (Gene 2296) was -0.876. For the same compound, the “FOXC2 log2FC” value (Gene 2303) was -0.613, the “FLT3 log2FC” value (Gene 2322) was 0.165 and the “FLT4 log2FC” value (Gene 2324) was -0.341. The “FNTA log2FC” value (Gene 2339) was 1.051, the “FXN log2FC” value (Gene 2395) was -0.579 and the “FRZB log2FC” value (Gene 2487) was 0.110. The “FYN log2FC” value (Gene 2534) was -0.127, the “G6PD log2FC” value (Gene 2539) was -0.236 and the “GABRA5 log2FC” value (Gene 2558) was 0.036. The “GABRB2 log2FC” value (Gene 2561) was -0.066, the “GABRB3 log2FC” value (Gene 2562) was 0.054 and the “GAS1 log2FC” value (Gene 2619) was 0.711. For the same compound, the “GAS2 log2FC” value (Gene 2620) was 0.183, the “GATA1 log2FC” value (Gene 2623) was -0.041 and the “GATA3 log2FC” value (Gene 2625) was -0.140. For the same compound, the “GDNF log2FC” value (Gene 2668) was 0.348, the “B4GALT1 log2FC” value (Gene 2683) was 0.129 and the “GJA1 log2FC” value (Gene 2697) was -0.390. The “GCLC log2FC” value (Gene 2729) was 1.033, the “GLI3 log2FC” value (Gene 2737) was 0.306 and the “GLO1 log2FC” value (Gene 2739) was 0.300. The “GML log2FC” value (Gene 2765) was -0.233, the “GNB1 log2FC” value (Gene 2782) was -0.075 and the “GNGT1 log2FC” value (Gene 2792) was 0.035. For the same compound, the “GNRH1 log2FC” value (Gene 2796) was 0.243, the “SFN log2FC” value (Gene 2810) was -1.182 and the “GPLD1 log2FC” value (Gene 2822) was -0.136. For the same compound, the “CXCR3 log2FC” value (Gene 2833) was -0.730, the “GRK5 log2FC” value (Gene 2869) was 0.091 and the “MKNK2 log2FC” value (Gene 2872) was -0.750. For the same compound, the “GPX1 log2FC” value (Gene 2876) was 0.224, the “GRID2 log2FC” value (Gene 2895) was -0.054 and the “GRIK2 log2FC” value (Gene 2898) was 0.090. For the same compound, the “GRIK5 log2FC” value (Gene 2901) was -0.286, the “GRIN1 log2FC” value (Gene 2902) was -0.518 and the “GRIN2A log2FC” value (Gene 2903) was -0.037. The “NR3C1 log2FC” value (Gene 2908) was 1.303, the “GRM4 log2FC” value (Gene 2914) was -0.041 and the “PDIA3 log2FC” value (Gene 2923) was -0.131. For the same compound, the “GSK3A log2FC” value (Gene 2931) was -0.246, the “GSK3B log2FC” value (Gene 2932) was -0.607 and the “GSN log2FC” value (Gene 2934) was -0.206. The “GSTP1 log2FC” value (Gene 2950) was 0.120, the “MSH6 log2FC” value (Gene 2956) was 0.235 and the “GZMH log2FC” value (Gene 2999) was -0.228. The “GZMA log2FC” value (Gene 3001) was -0.081, the “GZMB log2FC” value (Gene 3002) was -0.203 and the “GZMM log2FC” value (Gene 3004) was -0.523. For the same compound, the “H1F0 log2FC” value (Gene 3005) was 0.826, the “HCK log2FC” value (Gene 3055) was -0.046 and the “HDAC1 log2FC” value (Gene 3065) was -0.487. For the same compound, the “HDAC2 log2FC” value (Gene 3066) was 0.164, the “HELLS log2FC” value (Gene 3070) was 0.388 and the “NCKAP1L log2FC” value (Gene 3071) was 0.079. The “HGF log2FC” value (Gene 3082) was -0.369, the “NRG1 log2FC” value (Gene 3084) was -1.147 and the “HIC1 log2FC” value (Gene 3090) was -0.118. The “HIF1A log2FC” value (Gene 3091) was 0.141, the “HIP1 log2FC” value (Gene 3092) was -0.264 and the “HINT1 log2FC” value (Gene 3094) was 0.229. The “HK2 log2FC” value (Gene 3099) was -1.193, the “HMGB1 log2FC” value (Gene 3146) was 0.513 and the “HMGB2 log2FC” value (Gene 3148) was 1.232. The “HMGCR log2FC” value (Gene 3156) was 0.305, the “HMOX1 log2FC” value (Gene 3162) was 1.167 and the “NR4A1 log2FC” value (Gene 3164) was -0.616. For the same compound, the “HOXA5 log2FC” value (Gene 3202) was 0.402, the “HOXA13 log2FC” value (Gene 3209) was 0.081 and the “HRAS log2FC” value (Gene 3265) was -0.664. The “HRG log2FC” value (Gene 3273) was 0.066, the “PRMT2 log2FC” value (Gene 3275) was 0.361 and the “HSPA1A log2FC” value (Gene 3303) was -2.764. For the same compound, the “HSPA5 log2FC” value (Gene 3309) was -0.358, the “HSPB1 log2FC” value (Gene 3315) was -0.158 and the “HSP90AA1 log2FC” value (Gene 3320) was 1.066. For the same compound, the “HSP90AB1 log2FC” value (Gene 3326) was -0.153.
